# ChEMBL document CHEMBL6134860, “Discovery and optimization of a novel carboxamide scaffold with selective antimalarial activity” (Eur J Med Chem, 2025)
# Columns and labels:
# Plasmodium falciparum [1] = assay: microbe, parasite or virus in culture; format: functional, organism-based; details: D6, 72 h
# Plasmodium falciparum [2] = assay: microbe, parasite or virus in culture; format: functional, organism-based; details: 3D7, 72 h
# Plasmodium falciparum [3] = assay: microbe, parasite or virus in culture; format: functional, organism-based; details: C235, 72 h
# Plasmodium falciparum [4] = assay: microbe, parasite or virus in culture; format: functional, organism-based; details: C2B, 72 h
# Plasmodium falciparum [5] = assay: microbe, parasite or virus in culture; format: functional, organism-based; details: W2, 72 h
# [6] = Cytotoxicity against human HepG2 cells measured after 72 hrs by hoechst 33342 staining based imaging assay; format: toxicity, cell-based
Compound,EC50 (Plasmodium falciparum [5]; read-out: EC50),EC50 (Plasmodium falciparum [5]; read-out: pEC50 (converted)),CC50 at 72 h ([6]; read-out: CC50),CC50 at 72 h ([6]; read-out: pCC50 (converted)),further results
CN(C(=O)c1ncc(-c2ccc(Cl)cc2)o1)c1ccc(Cl)cc1,0.17 µM,0.17 µM,,,EC50 (Plasmodium falciparum [1]; read-out: EC50): 0.84 µM; EC50 (Plasmodium falciparum [1]; read-out: pEC50 (converted)): 0.832 µM; EC50 (Plasmodium falciparum [2]; read-out: EC50): 0.502 µM; EC50 (Plasmodium falciparum [2]; read-out: pEC50 (converted)): 0.501 µM; EC50 (Plasmodium falciparum [3]; read-out: EC50): 0.281 µM; EC50 (Plasmodium falciparum [3]; read-out: pEC50 (converted)): 0.282 µM; EC50 (Plasmodium falciparum [4]; read-out: EC50): 0.168 µM; EC50 (Plasmodium falciparum [4]; read-out: pEC50 (converted)): 0.166 µM
C[C@H]1[C@@H](O)O[C@@H]2O[C@@]3(C)CC[C@H]4[C@H](C)CC[C@@H]1[C@@]24OO3 [ARTENIMOL],,0.000417 µM,,,EC50 (Plasmodium falciparum [1]; read-out: pEC50 (converted)): 0.00155 µM; EC50 (Plasmodium falciparum [2]; read-out: pEC50 (converted)): 0.000661 µM; EC50 (Plasmodium falciparum [3]; read-out: pEC50 (converted)): 0.00295 µM; EC50 (Plasmodium falciparum [4]; read-out: pEC50 (converted)): 0.000178 µM
O=C(Nc1ncn(-c2ccc(Cl)cc2)n1)c1ccc(Cl)cc1,,3.09 µM,> 10 µM,> 10 µM,
Cc1ccc(C(=O)N(C)c2ncn(-c3ccc(Cl)cc3)n2)cc1,,4.27 µM,> 10 µM,> 10 µM,
Cc1ccc(-n2cnc(C(=O)N(C)c3ccc(Cl)cc3)n2)cc1,1.68 µM,1.7 µM,> 10 µM,> 10 µM,
COc1ccc(-n2cnc(C(=O)N(C)c3ccc(Cl)cc3)n2)cc1,> 3.86 µM,> 3.89 µM,> 10 µM,> 10 µM,
O=C(Nc1ccc(Cl)cc1)c1ncn(-c2ccc(Cl)cc2)n1,> 6.44 µM,> 6.46 µM,> 10 µM,> 10 µM,
CN(C(=O)c1ncc(-c2ccc(Cl)cc2)s1)c1ccc(Cl)cc1,> 6.75 µM,> 6.76 µM,> 10 µM,> 10 µM,
Cc1ccc(C(=O)N(C)c2ncn(-c3ccc(C)cc3)n2)cc1,> 3.38 µM,> 3.39 µM,> 10 µM,> 10 µM,
Cc1ccc(NC(=O)c2ncn(-c3ccc(Cl)cc3)n2)cc1C,> 2.89 µM,> 2.88 µM,> 10 µM,> 10 µM,
O=C1c2sc(-c3ccc(Cl)cc3)nc2CN1c1ccc(Cl)cc1,> 10 µM,> 10 µM,> 10 µM,> 10 µM,
CCc1ccc(-n2cnc(C(=O)N(C)c3ccc(OC)cc3)n2)cc1,,0.933 µM,> 10 µM,> 10 µM,
Cc1nc(-c2ccc(Cl)cc2)sc1C(=O)N(C)c1ccc(Cl)cc1,> 10 µM,> 10 µM,> 10 µM,> 10 µM,
CN(C(=O)c1ncc(-c2ccc(Cl)cc2)[nH]1)c1ccc(Cl)cc1,> 7.09 µM,> 7.08 µM,> 10 µM,> 10 µM,
CCc1ccc(-n2cnc(C(=O)N(C)c3ccc(C)c(C)c3)n2)cc1,,2 µM,> 10 µM,> 10 µM,
O=C1C(O)=C([C@H]2CC[C@H](c3ccc(Cl)cc3)CC2)C(=O)c2ccccc21 [ATOVAQUONE],,0.000759 µM,,,EC50 (Plasmodium falciparum [1]; read-out: pEC50 (converted)): 0.000603 µM; EC50 (Plasmodium falciparum [2]; read-out: pEC50 (converted)): 0.000851 µM; EC50 (Plasmodium falciparum [3]; read-out: pEC50 (converted)): 0.00195 µM; EC50 (Plasmodium falciparum [4]; read-out: pEC50 (converted)): < 1 µM
Cc1cccc(N(C)C(=O)c2ncn(-c3ccc(Cl)cc3)n2)c1,> 4.03 µM,> 4.07 µM,> 10 µM,> 10 µM,
CCc1ccc(-n2cnc(C(=O)N(C)c3ccc(Cl)cc3)n2)cc1,,0.617 µM,> 10 µM,> 10 µM,
COc1ccc(C[C@H](N)C(=O)N[C@H]2[C@@H](O)[C@H](n3cnc4c(N(C)C)ncnc43)O[C@@H]2CO)cc1 [PUROMYCIN],,0.0631 µM,,0.646 µM,
Cc1ccc(C(=O)Nc2ncn(-c3ccc(Cl)cc3)n2)cc1,> 10 µM,> 10 µM,> 10 µM,> 10 µM,
CN(C(=O)c1ncn(-c2ccc(Cl)cc2)n1)c1ccc(Cl)c(Cl)c1,,0.933 µM,> 10 µM,> 10 µM,
CN(C(=O)c1ncn(-c2ccc(Cl)cc2)n1)c1ccc(C(F)(F)F)cc1,,3.8 µM,> 6.93 µM,> 6.92 µM,
[2H]C([2H])([2H])N(C(=O)c1cc(-c2ccc(Cl)cc2)ccn1)c1ccc(Cl)cc1,198 µM,0.2 µM,,,EC50 (Plasmodium falciparum [1]; read-out: EC50): 0.608 µM; EC50 (Plasmodium falciparum [1]; read-out: pEC50 (converted)): 0.603 µM; EC50 (Plasmodium falciparum [2]; read-out: EC50): 0.588 µM; EC50 (Plasmodium falciparum [2]; read-out: pEC50 (converted)): 0.589 µM; EC50 (Plasmodium falciparum [3]; read-out: EC50): 0.199 µM; EC50 (Plasmodium falciparum [3]; read-out: pEC50 (converted)): 0.2 µM; EC50 (Plasmodium falciparum [4]; read-out: EC50): 0.104 µM; EC50 (Plasmodium falciparum [4]; read-out: pEC50 (converted)): 0.105 µM
Cc1ccc(-n2cnc(C(=O)N(C)c3cccc(C)c3)n2)cc1,> 2.82 µM,> 2.82 µM,> 10 µM,> 10 µM,
CCc1ccc(-n2cnc(C(=O)N(C)c3cccc(C)c3)n2)cc1,> 4.26 µM,> 4.27 µM,> 10 µM,> 10 µM,
Cc1ccc(N(C)C(=O)c2ncn(-c3ccc(C(C)C)cc3)n2)cc1,,0.741 µM,> 10 µM,> 10 µM,
O=C(Nc1ccc(C(F)(F)F)cc1)c1ncn(-c2ccc(Cl)cc2)n1,> 6.44 µM,> 6.46 µM,> 10 µM,> 10 µM,

Compound,EC50 (Plasmodium falciparum [5]; read-out: EC50),EC50 (Plasmodium falciparum [5]; read-out: pEC50 (converted)),CC50 at 72 h ([6]; read-out: CC50),CC50 at 72 h ([6]; read-out: pCC50 (converted)),further results
CN(C(=O)c1ncn(-c2ccc(Cl)cc2)n1)c1ccc(C(C)(C)C)cc1,> 8.03 µM,> 7.94 µM,> 1.76 µM,> 1.78 µM,
CN(C(=O)c1cnc(-c2ccc(Cl)cc2)s1)c1ccc(Cl)cc1,> 10 µM,> 10 µM,> 10 µM,> 10 µM,
Cc1ccc(-n2cnc(NC(=O)c3ccc(Cl)cc3)n2)cc1,> 2.99 µM,> 3.02 µM,> 10 µM,> 10 µM,
CCc1ccc(-n2cnc(C(=O)N(C)c3ccc(C)cc3)n2)cc1,,0.575 µM,> 10 µM,> 10 µM,
COc1ccc(N(C)C(=O)c2ncn(-c3ccc(Cl)cc3)n2)cc1,,1.91 µM,> 10 µM,> 10 µM,
Cc1ccc(-n2cc(C(=O)N(C)c3ccc(Cl)cc3)nn2)cc1,> 10 µM,> 10 µM,> 10 µM,> 10 µM,
Cc1ccc(-c2nc(C)c(C(=O)N(C)c3ccc(Cl)cc3)o2)cc1,> 8.87 µM,> 8.91 µM,> 10 µM,> 10 µM,
Cc1nc(-c2ccc(Cl)cc2)oc1C(=O)N(C)c1ccc(Cl)cc1,> 4.34 µM,> 4.37 µM,> 10 µM,> 10 µM,
Cc1ccc(-c2ncc(C(=O)N(C)c3ccc(Cl)cc3)o2)cc1,> 10 µM,> 10 µM,> 10 µM,> 10 µM,
CN(C(=O)c1ncn(-c2ccc(Cl)cc2)n1)c1ccc(Cl)cc1,,0.525 µM,> 10 µM,> 10 µM,
COc1ccc(-n2cnc(C(=O)N(C)c3cccc(C)c3)n2)cc1,> 5.77 µM,> 5.75 µM,> 10 µM,> 10 µM,
CN(C(=O)c1ncn(-c2ccc(Cl)cc2)n1)c1ccccc1,> 13.8 µM,> 13.8 µM,> 10 µM,> 10 µM,
Cc1ccc(-c2cnc(C(=O)N(C)c3ccc(Cl)cc3)[nH]2)cc1,> 10 µM,> 10 µM,> 10 µM,> 10 µM,
Cc1ccc(-c2ccnc(C(=O)N(C)c3ccc(Cl)cc3)c2)cc1,,0.49 µM,> 10 µM,> 10 µM,
O=C(c1ccc(Cl)cc1)c1cc(-c2ccc(Cl)cc2)ccn1,> 10000 µM,> 10 µM,> 10 µM,> 10 µM,
Cc1ccc(-n2cnc(C(=O)Nc3ccc(Cl)cc3)n2)cc1,> 10 µM,> 10 µM,> 10 µM,> 10 µM,
CCc1ccc(NC(=O)c2ncn(-c3ccc(Cl)cc3)n2)cc1,> 6.93 µM,> 6.92 µM,> 10 µM,> 10 µM,
Cc1ccc(-c2ncc(C(=O)N(C)c3ccc(Cl)cc3)s2)cc1,> 10 µM,> 10 µM,> 10 µM,> 10 µM,
Cc1ccc(-c2nc(C)c(C(=O)N(C)c3ccc(Cl)cc3)s2)cc1,> 4.78 µM,> 4.79 µM,> 10 µM,> 10 µM,
COc1ccc(-n2cnc(C(=O)N(C)c3ccc(C)cc3)n2)cc1,,5.75 µM,> 10 µM,> 10 µM,
CN(C(=O)c1cn(-c2ccc(Cl)cc2)nn1)c1ccc(Cl)cc1,> 10 µM,> 10 µM,> 10 µM,> 10 µM,
Cc1ccc(N(C)C(=O)c2ncn(-c3ccc(C(C)C)cc3)n2)cc1C,> 3.86 µM,> 3.89 µM,> 10 µM,> 10 µM,
Cc1cccc(N(C)C(=O)c2ncn(-c3ccc(C(C)C)cc3)n2)c1,> 3.33 µM,> 3.31 µM,> 10 µM,> 10 µM,
Cc1ccc(N(C)C(=O)c2cn(-c3ccc(Cl)cc3)nn2)cc1,> 10 µM,> 10 µM,> 10 µM,> 10 µM,
O=C(Nc1ccc(-c2cc3ccccc3oc2=O)cc1)c1cccc2ccccc12,> 4.05 µM,> 4.07 µM,1.16 µM,1.15 µM,
CN(C(=O)c1ncn(-c2ccc(Cl)cc2)n1)c1ccc([N+](=O)[O-])cc1,,2.29 µM,> 10 µM,> 10 µM,
O=C(Nc1ccc([N+](=O)[O-])cc1)c1ncn(-c2ccc(Cl)cc2)n1,> 10 µM,> 10 µM,> 10 µM,> 10 µM,
